What was measured:
[1] = tested on: female subjects experiencing Vasomotor Symptoms (VMS); assay: Phase Ib study: frequency of vasomotor symptoms (VMS); type: in vivo, human; parameters: key to Mean observed value in VMS frequency (moderate and severe VMS): moderate + severe VMS events per day
Source text: (§1) Study Design: This was a Phase Ib, randomized, double blind, placebo controlled study. The study design is illustrated in FIG. 2. Following the initial Screening visit, eligible subjects was given an actigraphy event monitor (watch) to record episodes of flashing as Vasomotor symptoms (VMS) events during a period of 2 weeks during Screening, in order to confirm VMS eligibility criteria (>7 VMS/day on average during 2 weeks). Subjects may be required to return to the site during the Screening period to read or exchange the actigraphy event monitor. Subjects deemed eligible following review of VMS data were invited to attend the Clinical research unit (CRU) for one residential period of 16 days duration, including 14 days of Investigational Medicinal Product (IMP) administration. Subjects were admitted to the CRU 1 day prior to dosing (Day −1). No medication was administered on Day −1. On Day 1, subjects who meet the study eligibility criteria were randomized to receive one dose level of either Compound A (6 subjects) or a matching placebo (2 subjects) in a double-blind manner. Randomized treatment was administered once nightly, starting on Day 1, for a total duration of 14 days.
Fifty (50) mg of Compound A was administered to the female subjects experiencing Vasomotor Symptoms (VMS), and as the above-mentioned assessments, a Frequency of VMS and a Core body temperature assessment were examined.
Here a moderate VMS and a severe VMS were counted as a VMS frequency.

naive SD rats = assay: Evaluation of TRPM8 antagonist on core body (rectal) temperature in rats; type: in vivo
Protocol: Methods: Compound A (0.3 and 3 mg/kg) or vehicle was orally administered to naive SD rats (n=6). Rectal temperature was measured before, 1, 2, 3 and 6 hours after administration. AUC for 0 to 6 hours was calculated and statistically analyzed.

[2] = tested on: female subjects experiencing Vasomotor Symptoms (VMS); assay: Phase Ib study: core body temperature assessment; type: in vivo, human; conditions: 50 mg; within 24 hours post-dose on Visit Day 1, 7, 10 or 14, FIG. 4
Source text: as §1, with “days. […]” for “days.”

O=C(O)c1ccc(S(=O)(=O)N(Cc2ccc(OC(F)(F)F)cc2)c2ncc3ccccc3c2C2CC2)cc1 [Compound A, 4-({(4-cyclopropylisoquinolin-3-yl)[4-(trifluoromethoxy)benzyl]amino}sulfonyl)benzoic acid]
Effect on frequency of VMS versus placebo ([1]; 50 mg once nightly, 14 days, FIG. 3): reduced the frequency of VMS significantly
Onset of the reduction effect of VMS frequency ([1]; 50 mg once nightly, FIG. 3): the reduction effect of VMS frequency was shown at Day 2 or later
Mean observed value in VMS frequency (moderate and severe VMS) ([1]; Baseline (before dosing), 50 mg group): 11.2
Mean observed value in VMS frequency (moderate and severe VMS) ([1]; Day 1, 50 mg once nightly): 11.7
Mean observed value in VMS frequency (moderate and severe VMS) ([1]; Day 2, 50 mg once nightly): 6.0
Mean observed value in VMS frequency (moderate and severe VMS) ([1]; Day 3, 50 mg once nightly): 4.7
Mean observed value in VMS frequency (moderate and severe VMS) ([1]; Day 4, 50 mg once nightly): 4.7
Mean observed value in VMS frequency (moderate and severe VMS) ([1]; Day 5, 50 mg once nightly): 2.7
Mean observed value in VMS frequency (moderate and severe VMS) ([1]; Day 6, 50 mg once nightly): 2.8
Mean observed value in VMS frequency (moderate and severe VMS) ([1]; Day 7, 50 mg once nightly): 3.0
Mean observed value in VMS frequency (moderate and severe VMS) ([1]; Day 8, 50 mg once nightly): 3.3
Mean observed value in VMS frequency (moderate and severe VMS) ([1]; Day 9, 50 mg once nightly): 1.3
Mean observed value in VMS frequency (moderate and severe VMS) ([1]; Day 10, 50 mg once nightly): 3.2
Mean observed value in VMS frequency (moderate and severe VMS) ([1]; Day 11, 50 mg once nightly): 2.8
Mean observed value in VMS frequency (moderate and severe VMS) ([1]; Day 12, 50 mg once nightly): 2.7
Mean observed value in VMS frequency (moderate and severe VMS) ([1]; Day 13, 50 mg once nightly): 2.3
Mean observed value in VMS frequency (moderate and severe VMS) ([1]; Day 14, 50 mg once nightly): 2.3
Maximum decrease in rectal temperature (amplitude) (naive SD rats; 3 mg/kg orally, at 2 hours after administration, SD rats): 0.82 °C
Rectal temperature compared to vehicle (AUC for 0 to 6 hours) (naive SD rats; 0.3 and 3 mg/kg orally, naive SD rats, P<0.01 vs vehicle, FIG. 1): significantly reduced rectal temperature
Change from baseline in core body temperature [2]: reduced the core body temperature significantly

— patent publication US10993939B2, “Compositions for treating or preventing vasomotor symptoms” (Mitsubishi Tanabe Pharma Corporation, priority 2016, dated 2021)
